Measured values published in patent US4087416A, “New heptapeptides and methods for their production” (Parke, Davis & Company, priority 1976, dated 1978).

Tested on: LRF (luteinizing hormone releasing factor) induced luteinizing hormone (LH) release
Test: In vitro LRF antagonist test in rat anterior pituitary cell cultures
Assay type: cell-based
Text: Heptapeptides of this invention were screened for LRF antagonist activity in vitro using rat anterior pituitary cell cultures as described by Vale et. al. [Endocrinology, 91, 562 (1972)]. The inhibition of LRF (luteinizing hormone releasing factor) induced luteinizing hormone (LH) release into the culture medium is the endpoint in this in vitro bioassay.

[1] = Molar Conc. 1×10^-7, second experiment (LRF 3.5×10^-10)
[2] = Molar Conc. 2×10^-7, second experiment (LRF 3.5×10^-10)
[3] = Molar Conc. 3.5×10^-7, second experiment (LRF 3.5×10^-10)
[4] = Molar Conc. 1×10^-6, first experiment (LRF 5×10^-10)
[5] = Molar Conc. 1×10^-7, first experiment (LRF 5×10^-10)
[6] = Molar Conc. 1×10^-8, first experiment (LRF 5×10^-10)
[7] = Molar Conc. 3.5×10^-7, first experiment (LRF 5×10^-10)
[8] = Molar Conc. 3.5×10^-8, first experiment (LRF 5×10^-10)

## N^α -t-Butoxycarbonyl-L-prolyl-N^im -benzyl-L-histidyl-N^im -benzyl-L-histidyl-O-benzyl-L-seryl-O-benzyl-L-tyrosyl-L-tryptophyl-D-alanine methyl ester
[1]
  % LH Release Inhibition: 65%
  LH Value: 23.32 ng/mL
[2]
  % LH Release Inhibition: 58%
  LH Value: 24.98 ng/mL
[3]
  % LH Release Inhibition: 74%
  LH Value: 20.80 ng/mL

## LRF Control: luteinizing hormone releasing factor, also referred to as luteinizing hormone releasing hormone; stimulates the secretion of luteinizing hormone (QHWSYGLRPG; Gonadoliberin-1; UniProt P01148 24-33, looked up) [reference compound]
LRF alone, Molar Conc. 3.5×10^-10, second experiment
  LH Value: 40.01 ng/mL
LRF alone, Molar Conc. 5×10^-10, first experiment
  LH Value: 38.48 ng/mL

## N^α -t-Butoxycarbonyl-L-prolyl-N^im -benzyl-L-histidyl-N^im -benzyl L-histidyl-O-benzyl-L-seryl-O-benzyl-L-tyrosyl-L-tryptophyl-D-alanine N-ethylamide
[4]
  % LH Release Inhibition: 101%
  LH Value: 11.36 ng/mL
[5]
  % LH Release Inhibition: 77%
  LH Value: 17.83 ng/mL
[6]
  % LH Release Inhibition: 24%
  LH Value: 31.92 ng/mL
[7]
  % LH Release Inhibition: 99%
  LH Value: 11.90 ng/mL
[8]
  % LH Release Inhibition: 55%
  LH Value: 23.65 ng/mL
